Measured values from patent publication US12653902B2, “Photo-immunoconjugate formulations and methods of treatment relating thereto” (University of Maryland, College Park, priority 2019, dated 2026).

Tests used:
[1] = cited from earlier work
[2] = Absorbance at 690 nm in PBS compared to DMSO; format: physicochemical; conditions: fixed BPD concentration
[3] = Photoactivity (maximal fluorescence intensity in PBS divided by that in DMSO); format: physicochemical; conditions: maximal FI in PBS divided by maximal FI in DMSO
Experimental: Photo-immunoconjugate-nanoliposomes (PIC-Nal) and photo-immunoconjugate-nanoliposomal irinotecan (PIC-Nal-IRI) were synthesized via cooper-free click chemistry (FIG. 1). Briefly, azide-containing PICs were mixed overnight with DBCO-containing Nal (or DBCO-containing Nal-IRI) at 60:1 ratio. Sepharose CL-4B size exclusion chromatography was used to purify PIC-Nal and PIC-Nal-IRI. Irinotecan and BPD concentrations were determined by UV-Vis spectroscopy and established molar extinction coefficients: 20985 M^−1cm^−1 at 380 nm for irinotecan, 80500 M^−1cm^−1 at 435 nm and 34,895 M^−1 cm^−1 at 687 nm for BPD (Table 1). Conjugation efficacy was determined by the molar ratio of PIC onto the liposomes to the total PIC added initially. Singlet oxygen sensor green (SOSG, 5 μM) was used to detect singlet oxygen (^1O2) yield upon light irradiation of PIC-Nal-IRI or controls. BPD concentration is fixed at 5 μM. A microplate reader (BioTek) was used to acquire SOSG fluorescence signals (Ex/Em: 504/525 nm) before and after light irradiation (690 nm, 150 mW/cm^2, 20 J/cm^2). Photoactivity is defined as the maximal fluorescence intensity (FI) of photosensitizer in PBS divided by the maximal FI of photosensitizer in DMSO.

[4] = test system: OVCAR-5 cells; test: Intracellular BPD uptake (BPD fluorescence, extraction and imaging); format: cell-based, human; conditions: 24 hours post-incubation, compared to PIC and PIC-Nal
Experimental: For uptake and phototoxicity studies, OVCAR-5 cells (200 k cells/35-mm dish) were incubated with PIC-Nal or controls (i.e., PIC alone, no-treatment) at a fixed BPD concentration (0.25 μM) for 24 hours. For uptake study, cells were washed twice with PBS and dissolved in SOLVABLE™. The BPD fluorescence signals (Ex/Em: 435/690 nm) were acquired using a microplate reader to quantify the uptake of PIC-Nal. In another set of experiments, washed cells were fixed with 4% paraformaldehyde, and stained with DAPI. Cells were imaged with the LionHeart Imager (BioTek) using the 10× objective to visualize the BPD signal (Ex/Em: 422/690 nm) and the DAPI signal (Ex/Em: 358/461 nm). BPD fluorescence intensity was quantified using ImageJ (Schneider C A et al., NIH Image to ImageJ: 25 years of image analysis. Nat Methods 2012, 9:671-675). For phototoxicity studies, cells were irradiated with a 690 nm laser (20 J/cm^2, 150 mW/cm^2) at 24 hours post-incubation of PIC-Nal or controls. Cell viability was determined by MTT (3-(4,5-dimethylthiazol-2-yl)-2,5-diphenyltetrazolium bromide) assay (Thermo) at 24 hours post-light activation.

## benzoporphyrin derivative [BPD]
[1]
  water solubility: < 0.05 mg/mL
[2]
  loss of absorbance value at 690 nm in PBS compared to fully dissolved in DMSO: ~64%
[3]
  photoactivity: poor photoactivity
[4]
  intracellular uptake by fluorescence imaging: highest uptake
